Patent US20260256925A1, “INDAZOLE DERIVATIVES AS ESTROGEN RECEPTOR DEGRADERS” (REGENTS OF THE UNIVERSITY OF MICHIGAN, priority 2022, published 2026)
pIC50: −log10 of the molar value.

Key:
ER [1] = target: T1, ER (Homo sapiens, UniProt P03372); test: Western blot analysis (compounds B1-B126); assay type: cell-based; conditions: ER degradation, read-out: Traditional Western Degradation potency (DC50)
T1 construct: endogenous in cells; probably T47D or MCF-7
T1 sequence (P03372 1-595): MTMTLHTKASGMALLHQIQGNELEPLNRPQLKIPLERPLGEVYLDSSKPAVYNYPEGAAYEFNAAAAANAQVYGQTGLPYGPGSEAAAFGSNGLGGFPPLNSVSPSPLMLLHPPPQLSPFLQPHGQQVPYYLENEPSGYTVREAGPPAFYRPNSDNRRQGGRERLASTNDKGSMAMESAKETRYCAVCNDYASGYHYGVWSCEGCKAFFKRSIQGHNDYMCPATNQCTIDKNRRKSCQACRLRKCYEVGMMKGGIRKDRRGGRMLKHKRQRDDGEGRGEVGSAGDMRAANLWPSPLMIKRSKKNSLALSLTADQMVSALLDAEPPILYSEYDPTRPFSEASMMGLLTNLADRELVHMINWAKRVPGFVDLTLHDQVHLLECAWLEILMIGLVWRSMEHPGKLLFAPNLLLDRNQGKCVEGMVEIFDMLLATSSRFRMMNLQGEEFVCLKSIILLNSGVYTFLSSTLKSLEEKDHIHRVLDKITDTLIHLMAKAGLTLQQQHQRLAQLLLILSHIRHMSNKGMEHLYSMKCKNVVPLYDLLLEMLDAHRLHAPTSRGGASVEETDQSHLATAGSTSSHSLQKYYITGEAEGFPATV
Protocol: Western Blot Analysis. The cells that are treated with the compounds are lysed in Radioimmunoprecipitation Assay Protein Lysis and Extraction Buffer (e.g., 25 mmol/L Tris.HCl, pH 7.6, 150 mmol/L NaCl, 1% Nonidet P-40, 1% sodium deoxycholate, and 0.1% sodium dodecyl sulfate) containing proteinase inhibitor cocktail. Equal amounts of total protein are electrophoresed through 10% SDS-polyacrylamide gels after determination of protein concentration by BCA assay. The separated protein bands are transferred onto PVDF membranes and blotted against different antibodies. The blots are scanned, and the band intensities are quantified (e.g., by using GelQuant.NET software provided by biochemlabsolutions.com). The relative mean intensity of target proteins is expressed after normalization to the intensity of glyceraldehyde-3-phosphate dehydrogenase bands.
Western Blot Analysis. Western blot analysis was performed essentially as described previously. The cells treated with indicated compounds were lysed in Radioimmunoprecipitation Assay Protein Lysis and Extraction Buffer (25 mmol/L Tris.HCl, pH 7.6, 150 mmol/L NaCl, 1% Nonidet P-40, 1% sodium deoxycholate, and 0.1% sodium dodecyl sulfate) containing proteinase inhibitor cocktail (Roche Diagnostics, Mannheim, Germany). Equal amounts of total protein were electrophoresed through 10% SDS-polyacrylamide gels after determination of protein concentration by BCA assay (Fisher Scientific, Pittsburgh, PA). The separated protein bands were transferred onto PVDF membranes (GE Healthcare Life Sciences, Marlborough, MA) and blotted against different antibodies, as indicated. The blots were scanned, and the band intensities were quantified using GelQuant.NET software provided by biochemlabsolutions.com. The relative mean intensity of target proteins was expressed after normalization to the intensity of glyceraldehyde-3-phosphate dehydrogenase bands.

[2] = Cell growth assay, WST-8 (compounds B1-B126); assay type: cell-based; conditions: 96 h; T47D cell line, WST-8, 4 days; read-out: Cell growth inhibition in T47D cell line IC50
How it was run: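 Read-out is WST-8 absorbance at 450 nm (2.5 h, 37° C) as a fraction of vehicle control, from three separate repeats. Compound exposure lasted 4 days, starting one day after plating 1500 cells/well.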

CRBN/DDB1 = target: T2, CRBN/DDB1 (Homo sapiens, UniProt Q96SW2); assay type: binding; conditions: HTRF, Cy5-labeled Thalidomide probe
T2 construct: purchased Wuxi RP210521GA
T2 sequence (Q96SW2 whole entry): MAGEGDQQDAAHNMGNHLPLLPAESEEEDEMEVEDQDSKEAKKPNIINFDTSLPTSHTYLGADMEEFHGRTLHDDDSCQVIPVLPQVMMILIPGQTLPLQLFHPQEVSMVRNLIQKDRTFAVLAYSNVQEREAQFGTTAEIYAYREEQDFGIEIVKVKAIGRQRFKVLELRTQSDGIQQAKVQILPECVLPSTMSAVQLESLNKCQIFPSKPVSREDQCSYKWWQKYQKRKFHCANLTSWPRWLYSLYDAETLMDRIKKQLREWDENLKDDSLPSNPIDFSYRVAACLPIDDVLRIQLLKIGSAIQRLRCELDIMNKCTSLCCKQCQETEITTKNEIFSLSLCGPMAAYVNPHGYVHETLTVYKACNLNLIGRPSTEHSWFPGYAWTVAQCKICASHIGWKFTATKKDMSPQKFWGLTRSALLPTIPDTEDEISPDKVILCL
T2 sequence (Q16531 whole entry partner): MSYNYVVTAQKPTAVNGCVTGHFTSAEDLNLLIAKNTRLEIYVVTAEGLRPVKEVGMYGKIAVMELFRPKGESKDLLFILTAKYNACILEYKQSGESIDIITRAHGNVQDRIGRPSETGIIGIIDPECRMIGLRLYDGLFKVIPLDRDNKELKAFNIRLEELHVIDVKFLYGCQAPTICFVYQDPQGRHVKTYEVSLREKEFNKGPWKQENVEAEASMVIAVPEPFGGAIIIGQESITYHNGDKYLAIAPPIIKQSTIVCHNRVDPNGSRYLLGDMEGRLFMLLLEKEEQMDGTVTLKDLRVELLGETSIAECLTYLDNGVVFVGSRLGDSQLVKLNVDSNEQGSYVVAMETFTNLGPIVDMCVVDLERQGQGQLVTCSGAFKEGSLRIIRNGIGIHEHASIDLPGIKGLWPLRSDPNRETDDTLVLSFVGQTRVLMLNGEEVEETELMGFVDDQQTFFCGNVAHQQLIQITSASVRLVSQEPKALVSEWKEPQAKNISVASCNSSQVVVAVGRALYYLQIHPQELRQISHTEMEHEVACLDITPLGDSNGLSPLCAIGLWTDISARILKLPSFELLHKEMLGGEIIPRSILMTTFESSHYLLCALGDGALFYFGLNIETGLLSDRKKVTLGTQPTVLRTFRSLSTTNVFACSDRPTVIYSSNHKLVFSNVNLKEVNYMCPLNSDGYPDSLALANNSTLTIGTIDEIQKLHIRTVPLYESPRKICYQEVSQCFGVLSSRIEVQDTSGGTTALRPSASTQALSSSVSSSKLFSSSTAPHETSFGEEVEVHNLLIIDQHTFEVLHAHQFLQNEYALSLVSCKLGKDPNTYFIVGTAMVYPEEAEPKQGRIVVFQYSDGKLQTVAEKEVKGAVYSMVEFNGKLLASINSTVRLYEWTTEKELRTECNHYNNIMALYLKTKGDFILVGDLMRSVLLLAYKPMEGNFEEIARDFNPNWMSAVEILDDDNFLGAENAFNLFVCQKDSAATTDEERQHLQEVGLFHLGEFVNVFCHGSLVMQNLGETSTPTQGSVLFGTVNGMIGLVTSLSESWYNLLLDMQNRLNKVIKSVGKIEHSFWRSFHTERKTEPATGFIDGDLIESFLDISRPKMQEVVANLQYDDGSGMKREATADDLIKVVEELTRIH
Protocol: The binding potency was determined using HTRF assay technology (Perkin Elmer). Compounds were serially diluted in DMSO and 0.2 μL volume was transferred to white 384-well plate.

ER [3] = target: T1, ER; test: In-cell western blot analysis, relative ER percentage (compounds B1-B126); assay type: cell-based; conditions: ER degradation, 16 hours, read-out: ICW DC50
How it was run: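 Readout was a two-colour infrared in-cell western of formaldehyde-fixed cells after 16 h compound exposure at 0.5% DMSO, with 40,000 or 10,000 cells/well plated the previous night. Relative ER percentage compares treated wells against untreated/DMSO-treated wells taken as 100%.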

Molecule	DC50 (ER [1])	pIC50 [2]	pIC50 (CRBN/DDB1)	DC50 (ER [3])
C[C@@H]1Cc2c(ccc3[nH]ncc23)[C@@H](c2c(F)cc(NC3CN(C(=O)[C@H]4CC[C@@H](N5Cc6cc7c(cc6C5)C(=O)N(C5CCC(=O)NC5=O)C7=O)CC4)C3)cc2F)N1CC(F)F (stereo partly drawn) [Compound B25, 6-((1R,4s)-4-(3-((4-((6S,8R)-7-(2,2-difluoroethyl)-8-methyl-6,7,8,9-tetrahydro-3H-pyrazolo[4,3-f]isoquinolin-6-yl)-3,5-difluorophenyl)amino)azetidine-1-carbonyl)cyclohexyl)-2-(2,6-dioxopiperidin-3-yl)-6,7-dihydropyrrolo[3,4-f]isoindole-1,3(2H,5H)-dione]	< 10 nM	8.00 to 9.00		
C[C@@H]1Cc2c(ccc3[nH]ncc23)[C@@H](c2c(F)cc(N3CCC4(CCN(C(=O)CN5Cc6cc(F)c(C(=O)N[C@H]7CCC(=O)NC7=O)cc6C5)CC4)CC3)cc2F)N1CC(F)F [Compound A1, 2-(2-(9-(4-((6S,8R)-7-(2,2-difluoroethyl)-8-methyl-6,7,8,9-tetrahydro-3H-pyrazolo[4,3-f]isoquinolin-6-yl)-3,5-difluorophenyl)-3,9-diazaspiro[5.5]undecan-3-yl)-2-oxoethyl)-N-((S)-2,6-dioxopiperidin-3-yl)-6-fluoroisoindoline-5-carboxamide]			< 5.30	
C[C@@H]1Cc2c(ccc3[nH]ncc23)[C@@H](c2c(F)cc(NC3CN(C(=O)[C@H]4CC[C@H](N5Cc6cc7c(cc6C5)C(=O)N(C5CCC(=O)NC5=O)C7=O)CC4)C3)cc2F)N1CC(F)F (stereo partly drawn) [Compound B24, 6-((1S,4r)-4-(3-((4-((6S,8R)-7-(2,2-difluoroethyl)-8-methyl-6,7,8,9-tetrahydro-3H-pyrazolo[4,3-f]isoquinolin-6-yl)-3,5-difluorophenyl)amino)azetidine-1-carbonyl)cyclohexyl)-2-(2,6-dioxopiperidin-3-yl)-6,7-dihydropyrrolo[3,4-f]isoindole-1,3(2H,5H)-dione]	10 to 100 nM	8.00 to 9.00		
C[C@@H]1Cc2c(ccc3[nH]ncc23)[C@@H](c2ccc(N3CCC4(CC3)CN(C(=O)CN3Cc5cc6c(cc5C3)C(=O)N(C3CCC(=O)NC3=O)C6=O)CCO4)cn2)N1CC(F)(F)F (stereo partly drawn) [Compound B111]	10 to 100 nM	8.00 to 9.00		
C[C@@H]1Cc2c(ccc3[nH]ncc23)[C@@H](c2c(F)cc(N3CCC(CN4CCN(c5ccc6c(c5)CN(C5CCC(=O)NC5=O)C6=O)CC4)CC3)cc2F)N1CC(F)F (stereo partly drawn) [Compound B67, 3-(5-(4-((1-(4-((6S,8R)-7-(2,2-difluoroethyl)-8-methyl-6,7,8,9-tetrahydro-3H-pyrazolo[4,3-f]isoquinolin-6-yl)-3,5-difluorophenyl)piperidin-4-yl)methyl)piperazin-1-yl)-1-oxoisoindolin-2-yl)piperidine-2,6-dione]	< 10 nM	> 9.00		< 10 nM
C[C@@H]1Cc2c(ccc3[nH]ncc23)[C@@H](c2c(F)cc(N3CCC(CN4CCN5c6cc7c(cc6OC[C@@H]5C4)C(=O)N(C4CCC(=O)NC4=O)C7)CC3)cc2F)N1CC(F)F (stereo partly drawn) [Compound B16]	10 to 100 nM	> 9.00		
6-((1R,4s)-4-(4-(4-((6S,8R)-7-(2,2- difluoroethyl)-8-methyl-6,7,8,9- tetrahydro-3H-pyrazolo[4,3- f]isoquinolin-6-yl)-3,5- difluorophenyl)piperidine-1- carbonyl)cyclohexyl)-2-(2,6- dioxopiperidin-3-yl)-6,7- dihydropyrrolo[3,4-f]isoindole- 1,3(2H,5H)-dione [Compound B9]	< 10 nM			< 10 nM
C[C@@H]1Cc2c(ccc3[nH]ncc23)[C@@H](c2c(F)cc(N3CCC(CN4CCN5c6ccc7c(c6OCC5C4)CN(C4CCC(=O)NC4=O)C7=O)CC3)cc2F)N1CC(F)F (mixture of isomers) [Compound B104, 3-((RS)-7-((1-(4-((6S,8R)-7-(2,2-difluoroethyl)-8-methyl-6,7,8,9-tetrahydro-3H-pyrazolo[4,3-f]isoquinolin-6-yl)-3,5-difluorophenyl)piperidin-4-yl)methyl)-1-oxo-1,3,5,5a,6,7,8,9-octahydro-2H-pyrazino[1′,2′:4,5][1,4]oxazino[2,3-e]isoindol-2-yl)piperidine-2,6-dione]	10 to 100 nM			10 to 100 nM
C[C@@H]1Cc2c(ccc3[nH]ncc23)[C@@H](c2ccc(C3=CCC(C(=O)N4CCC(N5Cc6cc7c(cc6C5)C(=O)N(C5CCC(=O)NC5=O)C7=O)CC4)CC3)cn2)N1CC(F)(F)F (stereo partly drawn) [Compound B11, 2-(2,6-dioxopiperidin-3-yl)-6-(1-(4-(6-((6S,8R)-8-methyl-7-(2,2,2-trifluoroethyl)-6,7,8,9-tetrahydro-3H-pyrazolo[4,3-f]isoquinolin-6-yl)pyridin-3-yl)cyclohex-3-ene-1-carbonyl)piperidin-4-yl)-6,7-dihydropyrrolo[3,4-f]isoindole-1,3(2H,5H)-dione]	< 10 nM			
C[C@@H]1Cc2c(ccc3[nH]ncc23)[C@@H](c2c(F)cc([C@H]3CC[C@H](C(=O)N4CCC(N5Cc6cc7c(cc6C5)C(=O)N(C5CCC(=O)NC5=O)C7=O)CC4)CC3)cc2F)N1CC(F)F (stereo partly drawn) [Compound B2, 6-(1-((1S,4r)-4-(4-((6S,8R)-7-(2,2-difluoroethyl)-8-methyl-6,7,8,9-tetrahydro-3H-pyrazolo[4,3-f]isoquinolin-6-yl)-3,5-difluorophenyl)cyclohexane-1-carbonyl)pipcridin-4-yl)-2-(2,6-dioxopiperidin-3-yl)-6,7-dihydropyrrolo[3,4-f]isoindole-1,3(2H,5H)-dione]	< 10 nM			
